This note sets out measurements from patent US12344600B2, “c-Myc mRNA translation modulators and uses thereof in the treatment of cancer” (Anima Biotech Inc., priority 2022, dated 2025).

This assay deals with c-Myc. The assay is described as follows: c-Myc immunofluorescence assay. The settings on record: A549 cells, 24 hours, anti-c-Myc immunofluorescence. The class given is cell-based, human. The gist of the method:
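Read-out is imaged c-Myc immunofluorescence, nucleus-segmented, in A549 lung carcinoma cells exposed to compound dose series for 24 h after 48 h growth. Fixation 4% paraformaldehyde, Triton permeabilization, antibody staining at room temperature; EC50 from logistic fit of signal versus concentration.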
Take `COc1ccc(-c2noc(N3CCC(C(=O)NCc4nc5ccccc5o4)CC3)n2)cc1` [Compound 420, N-(benzo[d]oxazol-2-ylmethyl)-1-(3-(4-methoxyphenyl)-1,2,4-oxadiazol-5-yl)piperidine-4-carboxamide]: the “Myc Efficacy (−LogEC50)” value was “+ (+ >3 and <5)”.

Consider `COc1ccc(-c2noc(N3CCN(C(=O)NCC4CCN(CC5CCCCC5)C4)CC3)n2)cc1` (centres unmarked) [Compound 421, N-((1-(cyclohexylmethyl)pyrrolidin-3-yl)methyl)-4-(3-(4-methoxyphenyl)-1,2,4-oxadiazol-5-yl)piperazine-1-carboxamide], for which the “Myc Efficacy (−LogEC50)” value is “+++ (+++ ≥6)”.

In the case of `COc1ccc(-c2noc(N3CCC(C(=O)NCC4CCN(C[C@H]5CCCN(C)C5)C4)CC3)n2)cc1` (stereo partly drawn) [Compound 422, 1-(3-(4-methoxyphenyl)-1,2,4-oxadiazol-5-yl)-N-((1-(((S)-1-methylpiperidin-3-yl)methyl)pyrrolidin-3-yl)methyl)piperidine-4-carboxamide], the “Myc Efficacy (−LogEC50)” value is “++ (++ ≥5 and <6)”.

Consider `O=C(NCCCN1CCC(Oc2ccccc2)CC1)N1CCN(c2nc(-c3ccc(OC(F)(F)F)cc3)no2)CC1` [Compound 428, N-(3-(4-phenoxypiperidin-1-yl)propyl)-4-(3-(4-(trifluoromethoxy)phenyl)-1,2,4-oxadiazol-5-yl)piperazine-1-carboxamide], for which the “Myc Efficacy (−LogEC50)” value is “+++ (+++ ≥6)”.

On to `O=C(NCCCN1CCC(Cc2ccccc2F)CC1)N1CCN(c2nc(-c3ccc(OC(F)(F)F)cc3)no2)CC1` [Compound 429, N-(3-(4-(2-fluorobenzyl)piperidin-1-yl)propyl)-4-(3-(4-(trifluoromethoxy)phenyl)-1,2,4-oxadiazol-5-yl)piperazine-1-carboxamide], for which the “Myc Efficacy (−LogEC50)” value was “+++ (+++ ≥6)”.

As to `O=C(NCCCN1CCC(Cc2ccccn2)CC1)N1CCN(c2nc(-c3ccc(F)cc3)no2)CC1` [Compound 430, 4-(3-(4-fluorophenyl)-1,2,4-oxadiazol-5-yl)-N-(3-(4-(pyridin-2-ylmethyl)piperidin-1-yl)propyl)piperazine-1-carboxamide], the “Myc Efficacy (−LogEC50)” value is recorded as “+++ (+++ ≥6)”.

Take `COc1ccc(-c2noc(N3CCC(C(=O)NC[C@H]4CCN(CC5CCN(C)CC5)C4)CC3)n2)cc1` [Compound 433, (R)-1-(3-(4-methoxyphenyl)-1,2,4-oxadiazol-5-yl)-N-((1-((1-methylpiperidin-4-yl)methyl)pyrrolidin-3-yl)methyl)piperidine-4-carboxamide]: the “Myc Efficacy (−LogEC50)” value was “+ (+ >3 and <5)”.

As for `COc1ccc(-c2noc(N3CCC(C(=O)NC[C@@H]4CCN(CC5CCN(C)CC5)C4)CC3)n2)cc1` [Compound 434, (S)-1-(3-(4-methoxyphenyl)-1,2,4-oxadiazol-5-yl)-N-((1-((1-methylpiperidin-4-yl)methyl)pyrrolidin-3-yl)methyl)piperidine-4-carboxamide], the “Myc Efficacy (−LogEC50)” value is “+ (+ >3 and <5)”.

On to `O=C(NCCCN1CCC(Cc2ccccn2)CC1)C1CCN(c2nc(-c3ccc(OC(F)(F)F)cc3)no2)CC1` [Compound 435, N-(3-(4-(pyridin-2-ylmethyl)piperidin-1-yl)propyl)-1-(3-(4-(trifluoromethoxy)phenyl)-1,2,4-oxadiazol-5-yl)piperidine-4-carboxamide], for which the “Myc Efficacy (−LogEC50)” value is listed as “+++ (+++ ≥6)”.

`O=C(NCCCN1CCC(Cc2ccccn2)CC1)N1CCN(c2nc(-c3ccc(OC(F)(F)F)cc3)no2)CC1` [Compound 436, N-(3-(4-(pyridin-2-ylmethyl)piperidin-1-yl)propyl)-4-(3-(4-(trifluoromethoxy)phenyl)-1,2,4-oxadiazol-5-yl)piperazine-1-carboxamide]: the “Myc Efficacy (−LogEC50)” value is “+++ (+++ ≥6)”.

For `O=C(NCCCN1CCC(Cc2ccccc2F)CC1)N1CCN(c2nc(-c3ccc(OC(F)F)cc3)no2)CC1` [Compound 438, 4-(3-(4-(difluoromethoxy)phenyl)-1,2,4-oxadiazol-5-yl)-N-(3-(4-(2-fluorobenzyl)piperidin-1-yl)propyl)piperazine-1-carboxamide], the “Myc Efficacy (−LogEC50)” value is “+++ (+++ ≥6)”.

Turning to `O=C(NCC1(CN2CCC(Cc3ccccn3)CC2)CC1)N1CCN(c2nc(-c3ccc(OC(F)(F)F)cc3)no2)CC1` [Compound 450, N-((1-((4-(pyridin-2-ylmethyl)piperidin-1-yl)methyl)cyclopropyl)methyl)-4-(3-(4-(trifluoromethoxy)phenyl)-1,2,4-oxadiazol-5-yl)piperazine-1-carboxamide], the “Myc Efficacy (−LogEC50)” value is “++ (++ ≥5 and <6)”.

Regarding `O=C(NCCCN1CCC(Cc2ccccn2)CC1)C1CCN(c2nc(-c3ccc(OC(F)F)cc3)no2)CC1` [Compound 453, 1-(3-(4-(difluoromethoxy)phenyl)-1,2,4-oxadiazol-5-yl)-N-(3-(4-(pyridin-2-ylmethyl)piperidin-1-yl)propyl)piperidine-4-carboxamide], the “Myc Efficacy (−LogEC50)” value was “+++ (+++ ≥6)”.

Take `O=C(NCCCN1CCC(Cc2ccccn2)CC1)N1CCN(c2nc(-c3ccc(Cl)cc3)no2)CC1` [Compound 458, 4-(3-(4-chlorophenyl)-1,2,4-oxadiazol-5-yl)-N-(3-(4-(pyridin-2-ylmethyl)piperidin-1-yl)propyl)piperazine-1-carboxamide]: the “Myc Efficacy (−LogEC50)” value was “+++ (+++ ≥6)”.

For `O=C(NCCCN1CCC(Cc2ccccn2)CC1)N1CCN(c2nc(-c3ccc(C(F)(F)F)cc3)no2)CC1` [Compound 459, N-(3-(4-(pyridin-2-ylmethyl)piperidin-1-yl)propyl)-4-(3-(4-(trifluoromethyl)phenyl)-1,2,4-oxadiazol-5-yl)piperazine-1-carboxamide], the “Myc Efficacy (−LogEC50)” value is listed as “+++ (+++ ≥6)”.

With `O=C(NCCCN1CCC(Cc2ccccn2)CC1)N1CCN(c2nc(-c3ccc(C(F)F)cc3)no2)CC1` [Compound 460, 4-(3-(4-(difluoromethyl)phenyl)-1,2,4-oxadiazol-5-yl)-N-(3-(4-(pyridin-2-ylmethyl)piperidin-1-yl)propyl)piperazine-1-carboxamide], the “Myc Efficacy (−LogEC50)” value is given as “+++ (+++ ≥6)”.

As for `Cc1ccc(CN2CCC(CNC(=O)N3CCN(c4nc(-c5ccc(OCCO)cc5)no4)CC3)C2)cc1` (centres unmarked) [Compound 462, 4-(3-(4-(2-hydroxyethoxy)phenyl)-1,2,4-oxadiazol-5-yl)-N-((1-(4-methylbenzyl)pyrrolidin-3-yl)methyl)piperazine-1-carboxamide], the “Myc Efficacy (−LogEC50)” value is “++ (++ ≥5 and <6)”.

On to `Cc1ccc(CN2CCC(CNC(=O)C3CCN(c4nc(-c5ccc(OCCO)cc5)no4)CC3)C2)cc1` (centres unmarked) [Compound 463, 1-(3-(4-(2-hydroxyethoxy)phenyl)-1,2,4-oxadiazol-5-yl)-N-((1-(4-methylbenzyl)pyrrolidin-3-yl)methyl)piperidine-4-carboxamide], for which the “Myc Efficacy (−LogEC50)” value was “+ (+ >3 and <5)”.

Turning to `COc1ccc(-c2noc(N3CCC(C(=O)NCC4CCN(C[C@@H]5CCCN(C)C5)C4)CC3)n2)cc1` (stereo partly drawn) [Compound 464, 1-(3-(4-methoxyphenyl)-1,2,4-oxadiazol-5-yl)-N-((1-(((R)-1-methylpiperidin-3-yl)methyl)pyrrolidin-3-yl)methyl)piperidine-4-carboxamide], the “Myc Efficacy (−LogEC50)” value was “+ (+ >3 and <5)”.

As for `COc1ccc(-c2noc(N3CCC(C(=O)NC[C@H]4CCN(C[C@H]5CCCN(C)C5)C4)CC3)n2)cc1` [Compound 465, 1-(3-(4-methoxyphenyl)-1,2,4-oxadiazol-5-yl)-N-(((R)-1-(((S)-1-methylpiperidin-3-yl)methyl)pyrrolidin-3-yl)methyl)piperidine-4-carboxamide], the “Myc Efficacy (−LogEC50)” value is “+ (+ >3 and <5)”.
